Patent US12168646B2, “Aryl hydrocarbon receptor agonists and uses thereof” (NEXYS THERAPEUTICS, INC., priority 2022, dated 2024)

Assays:
[1] = Stability in human feces (azo reduction in feces homogenate); assay type: in vitro ADME; settings: pH 6.8, 37° C., under nitrogen
Experimental: Biological Data 2: Stability in Human Feces
Accordingly, selected azo compounds of the invention were exposed to human feces under conditions suitable to promote azo reduction.
The human feces from two donors were homogenized in isotonic phosphate buffered saline (pH 6.8) with a ratio of 1:10 (w/v). The tubes were sealed using sealing film. Test article was dissolved in isotonic phosphate buffer (pH 6.8) to form a working solution of 20 μM (if the solubility allows). An aliquot of working solution (50 μL) was added to the human feces homogenate (50 μL) for each time point (0, 1, 2, 4, 6 and 24 h) in duplicate and placed under nitrogen for about 1 minute in order to exhaust air, and then incubated at 37° C. After incubation at each pre-set time point, 1000 μL acetonitrile containing internal standard w as added to each tube to quench reaction. Samples were vortexed and centrifuged at 3700 rpm for 10 min and the supernatant was transferred for analysis (and diluted where necessary). The concentrations of test article and its metabolite (example 3) in the supernatants were determined using LC-MS/MS method. Sulfasalazine was used as a positive control. All incubations were performed in duplicate.

[2] = target: T1, AhR (Homo sapiens, UniProt P35869); experiment: HT29 AhR Reporter Assay (HT29-Lucia AhR cells, QUANTI-Luc luminescence); assay type: cell-based; settings: HT29-Lucia AhR cells
T1 construct: HT29-Lucia AhR cells were purchased from Invivogen (cat #ht21-ahr); host or cells: HT29-Lucia AhR cells
T1 sequence (P35869 11-848): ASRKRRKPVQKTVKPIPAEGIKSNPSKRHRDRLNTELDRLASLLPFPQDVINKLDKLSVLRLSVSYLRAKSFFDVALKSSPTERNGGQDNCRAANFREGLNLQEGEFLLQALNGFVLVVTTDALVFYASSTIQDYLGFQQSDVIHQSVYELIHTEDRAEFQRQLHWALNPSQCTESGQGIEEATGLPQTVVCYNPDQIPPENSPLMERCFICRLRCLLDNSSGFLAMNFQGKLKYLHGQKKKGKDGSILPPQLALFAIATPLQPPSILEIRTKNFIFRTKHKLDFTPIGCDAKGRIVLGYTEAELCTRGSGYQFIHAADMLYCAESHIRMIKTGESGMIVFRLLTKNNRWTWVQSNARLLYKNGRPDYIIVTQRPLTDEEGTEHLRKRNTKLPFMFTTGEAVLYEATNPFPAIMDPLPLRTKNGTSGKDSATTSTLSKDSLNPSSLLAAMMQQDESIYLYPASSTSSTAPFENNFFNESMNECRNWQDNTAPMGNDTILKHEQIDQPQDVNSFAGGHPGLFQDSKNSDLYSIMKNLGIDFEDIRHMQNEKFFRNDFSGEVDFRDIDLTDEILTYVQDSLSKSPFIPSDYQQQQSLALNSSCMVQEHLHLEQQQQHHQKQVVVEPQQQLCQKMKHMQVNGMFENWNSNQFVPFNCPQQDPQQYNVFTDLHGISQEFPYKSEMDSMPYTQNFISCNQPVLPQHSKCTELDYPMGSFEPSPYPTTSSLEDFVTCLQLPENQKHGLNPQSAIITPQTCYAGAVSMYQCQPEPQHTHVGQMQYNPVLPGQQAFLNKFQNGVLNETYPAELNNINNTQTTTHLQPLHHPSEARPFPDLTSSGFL
Experimental: Biological Data 1: HT29 AhR Reporter Assay HT29-Lucia AhR cells were purchased from Invivogen (cat #ht21-ahr). […] The cell suspension was removed from growth medium and rinsed gently with pre-warmed PBS (10 mL). Pre-warmed Trypsin (1 mL) was added, and cells were held at 30° C. for about 5 min and then detached by pipette. The dissociated cell clumps were gently pipetted up and down. The cells were resuspended in pre-warmed detection medium (DMEM, 10% FBS (30 min at 56° C.), 100 U/ml penicillin, 100 μg/ml streptomycin, and test article or vehicle) and counted. A cell suspension of ˜500,000 cells/mL in Detection medium was prepared. […] Samples (20 μL/well) were pipetted into a 96-well white (opaque), and QUANTI-Luc™ (50 μL/well) was added. The plate was gently tapped and then read in a luminometer (0.1 s reading time).

% of parent remaining after incubation for 6 h [1] [%] | EC50 ([2]; 18-24 h, EC50 = concentration to reach half of maximum efficacy of reference compound VAF347) [nM] | Emax ([2]; % efficacy = 100%*(TA-BG)/(Ref-BG), Ref = VAF347, read-out: HT29 AhR % efficacy) [%] | Compound
69 | – | – | O=C(O)c1cc(/N=N/c2ccccc2-c2ccnc(Nc3ccc(C(F)(F)F)cc3)n2)cc(C(=O)O)c1O [Example 37, (E)-2-Hydroxy-5-((2-(2-((4-(trifluoromethyl)phenyl)amino)pyrimidin-4-yl)phenyl)diazenyl)isophthalic acid]
10 | – | – | O=S(=O)(O)c1cc(/N=N/c2ccccc2-c2ccnc(Nc3ccc(C(F)(F)F)cc3)n2)ccc1O [Example 50, (E)-2-hydroxy-5-((2-(2-((4-(trifluoromethyl)phenyl)amino)pyrimidin-4-yl)phenyl)diazenyl)benzenesulfonic acid]
76 | – | – | O=C(O)c1cc(O)cc(/N=N/c2ccccc2-c2ccnc(Nc3ccc(C(F)(F)F)cc3)n2)c1 [Example 55, (E)-3-hydroxy-5-((2-(2-((4-(trifluoromethyl)phenyl)amino)pyrimidin-4-yl)phenyl)diazenyl)benzoic acid]
49 | – | – | O=C(O)c1cc(/N=N/c2ccccc2-c2ccnc(Nc3ccc(C(F)(F)F)cc3)n2)ccc1O [Example 32, (E)-2-hydroxy-5-((2-(2-((4-(trifluoromethyl)phenyl)amino)pyrimidin-4-yl)phenyl)diazenyl)benzoic acid]
33 | – | – | N[C@H](Cc1cc(/N=N/c2ccccc2-c2ccnc(Nc3ccc(C(F)(F)F)cc3)n2)ccc1O)C(=O)O [Example 49, (R,E)-2-amino-3-(2-hydroxy-5-((2-(2-((4-(trifluoromethyl)phenyl)amino)pyrimidin-4-yl)phenyl)diazenyl)phenyl)propanoic acid]
94 | 1420 | 74 | O=C(O)c1cc(/C=C/c2ccccc2-c2ccnc(Nc3ccc(C(F)(F)F)cc3)n2)ccc1O [Example 59, (E)-2-hydroxy-5-(2-(2-((4-(trifluoromethyl)phenyl)amino)pyrimidin-4-yl)styryl)benzoic acid, reference compound]
95 | – | – | O=C(O)c1cccc(/N=N/c2ccccc2-c2ccnc(Nc3ccc(C(F)(F)F)cc3)n2)c1 [Example 34, (E)-3-((2-(2-((4-(trifluoromethyl)phenyl)amino)pyrimidin-4-yl)phenyl)diazenyl)benzoic acid]
